In patent US20110039763A1, “TARGETED ANTIMICROBIAL MOIETIES” (C3 JIAN, INC., priority 2009, published 2011):
Ends that are not written are not given here. Peptide text beside a SMILES is read from it.

Key:
S. mutans [1] = assay: Post-antibiotic effect assay, S. mutans; format: cell-based, Streptococcus mutans; details: S. mutans monoculture; peptide 10 min, then fresh medium; FIG. 17A
Description: (§1) The activity and selectivity of MH-STAMPs after a 10 min incubation was determined by growth retardation experiments against targeted and untargeted bacteria in monocultures, as described previously (Id.). Cells from overnight cultures were diluted to ˜5×10^6 cfu/mL in MH (or TH with 1% sucrose for S. mutans), normalized by OD600 0.05-0.1 and seeded to 96-well plates. Cultures were then grown under the appropriate conditions for 2 h (3 h for S. mutans) prior to the addition of peptides for 10 min. Plates were then centrifuged at 3000×g for 5 min, the supernatants discarded, fresh medium returned (MH or TH without sucrose for S. mutans), and incubation resumed. Bacterial growth after treatment was then monitored over time by OD600.
(§2) MH-STAMP antimicrobial kinetics was ascertained utilizing a variation of the classical post-antibiotic effect assay, which measures the ability of an agent to affect an organism's growth after a short exposure period. Monocultures of MH-STAMP-targeted and untargeted organisms were exposed to M8(KH)-20, M8(BL)-20, BL(KH)-20, or unmodified BD2.20, then allowed to recover. […] Furthermore, replacement of the targeting region with a non-binding peptide abolishes specific activity.

P. aeruginosa [2] = assay: Post-antibiotic effect assay, P. aeruginosa; format: cell-based, Pseudomonas aeruginosa; details: P. aeruginosa monoculture; peptide 10 min, then fresh medium; FIG. 17B
Description: as §1, §2

S. epidermidis [3] = assay: Post-antibiotic effect assay, S. epidermidis; format: cell-based, Staphylococcus epidermidis; details: S. epidermidis monoculture; peptide 10 min, then fresh medium; FIG. 17C
Description: as §1, §2

S. aureus = assay: Post-antibiotic effect assay, S. aureus; format: cell-based, Staphylococcus aureus; details: S. aureus monoculture; peptide 10 min, then fresh medium; FIG. 17D
Description: as §1, §2

E. coli = assay: Post-antibiotic effect assay, E. coli; format: cell-based, Escherichia coli; details: E. coli monoculture; peptide 10 min, then fresh medium; FIG. 17E
Description: as §1, §2

[4] = system: Mixed planktonic populations of P. aeruginosa, E. coli, S. epidermidis, and S. mutans; assay: Microbial population shift assay; format: cell-based; details: mixed culture, 10 μM peptide, 24 h, detection limit 200 cfu/mL, FIG. 18
Description: Peptide (10 μM) or mock-treatment (1×PBS) was then added and samples were incubated at 37° C. for 24 h under anaerobic conditions (80% N2, 15% CO2, 5% H2). […] Plates were then incubated 37° C. under aerobic conditions (TH plates were incubated anaerobically) and colonies counted after 24 h to determine survivors. […] Gram stains and direct microscopic observation (from select isolated colonies) were undertaken to confirm species identity (data not shown). The detection limit of the assay was 200 cfu/mL.
We hypothesized that potential MH-STAMP dual-functionality could affect a particular set of bacteria within a mixed population, thereby promoting the outgrowth of non-targeted organisms and “shifting” the constituent makeup. To examine this possibility, defined mixed populations of planktonic cells were treated continuously and the make-up of the community examined after 24 h.

S. mutans UA140 biofilms = assay: Photodynamic antimicrobial assay, single-species biofilm; format: cell-based, Streptococcus mutans; details: 24 h S. mutans biofilm; 5 μM, no light
Description: To evaluate C16-RB against monoculture biofilms, S. mutans UA140 was grown overnight in TH prior to inoculation for biofilm formation. For biofilms, 1:5000 dilution of overnight culture was made into TH with 1% sucrose in 2 mL centrifuge tubes (200 μL volume) and grown 24 h under anaerobic conditions. After incubation, biofilms were treated for 5 min with 5 or 25 μM C16-RB or 5 μM RB in 1×PBS, or PBS alone, followed by removal of supernatant and exposure to 5 min blue light (emission 400-550 nm, power 400 mW/cm^2) from an Astralis 7 (Ivoclar Vivodent, Austria) handheld LED commonly used as a dental curing light. The light source was suspended 4 cm from the tube bottom (even with the mouth of the tube). A duplicate set of samples were left covered to serve as dark controls. After treatment, biofilms were mechanically disrupted and plated to determine cfu/mL.
After synthesis, the basic photosensitization potential of C16-RB was assessed by challenging mature single-species S. mutans biofilms (grown 24 h) with C16-RB or unmodified RB, followed by blue emission from a dental curing light.

[5] = system: mixed biofilms of S. oralis, S. gordonii, S. mitis, S. sanguinis, S. salivarius, and S. mutans JM11; assay: Photodynamic antimicrobial assay, multispecies biofilm; format: cell-based
Description: To gauge C16-RB selectivity for S. mutans, similar assays were conducted against multispecies biofilms. Mixed biofilms were seeded by diluting (1:5000) a mixture of equal parts S. oralis, S. gordonii, S. mitis, S. sanguinis, S. salivarius, and S. mutans JM11 (made from overnight cultures) into TH with 1% sucrose, 1% glucose, and 1% mannose. Biofilms were incubated and treated as described above with the addition of vitamin C or potassium gluconate. After the addition of agent and 5 min incubation, biofilms were washed 1× with 1×PBS prior to light exposure. After PDT and biofilm disruption, survivors were plated on TH, and TH supplemented with 800 μg/mL spectinomycin, which allowed for quantitation of surviving total oral streptococci and surviving S. mutans, respectively.
C16-RB was next evaluated for selectivity in mixed cultures containing S. mutans and non-cariogenic oral streptococci that compete for the same niche on the tooth surface. We utilized mixed biofilms of S. mutans transformed with spectinomycin resistance (strain JM11, Merritt, et al., 2005), plus S. oralis, S. gordonii, S. mitis, S. sanguinis, and S. salivarius. The mixed cultures were grown 24 and then treated with RB or C16-RB as indicated, plus potassium gluconate to minimize killing of untargeted bacteria by reducing the superoxide-producing activity of the free C16-RB not bound to S. mutans. […]

[6] = system: BHK-21 (ATCC CRL-10) fibroblasts; assay: Cytotoxicity (Promega CellTiterGlo assay); format: cell-based, hamster
Description: Streptococcus oralis ATCC 10557, Streptococcus gordonii (Challis), Streptococcus sanguinis (NY101), Streptococcus mitis ATCC 903, Streptococcus salivarius ATCC 13419 and S. mutans wild-type UA140 and JM11 (spectinomycin-resistant) strains were grown in Todd-Hewitt (TH) broth 37° C. in an anaerobic atmosphere of 80% N2, 10% CO2, and 10% H2. BHK-21 (ATCC CRL-10) fibroblasts were propagated in DMEM with 10% FBS, 1 mM sodium pyruvate, 100 units/mL penicillin G, and 100 μg/mL streptomycin at 37° C. with 5% CO2. Cells were detached with 0.25% trypsin and subcultured as recommended by the supplier.
The effect of RB and C16-RB on human fibroblasts was ascertained by utilizing the Promega CellTiterGlo assay, as described by the manufacturer. Briefly, fibroblasts were grown to confluence, detached, and seeded to 5,000 cells per well in a 96-well opaque walled, clear bottom 96-well plate (Nunc International). For long-term dark toxicity, cells were allowed to attach to for 18 h before the culture medium was replaced with medium plus serially-diluted RB or C16-RB (200 μM to 390 nM) or medium alone. After 18-24 h, equal volume Cell Titer Glo reagent was added to each well and mixed. Luciferace activity was then quantified to measure cell viability (Varian Fluorometer in Biolumenescence mode). To measure cytotoxicity after RB or C16-RB light exposure, cells were seeded at ˜10,000 cells per well and allowed to attach for 4 h. Cell growth medium was then replaced with RB or C16-RB containing medium, prior to exposure (a single well at a time) with blue light (400 mW/cm^2) suspended ˜3 cm from the well bottom. After exposure, cultures were disrupted with Cell Titer Glo and luciferase activity quantitated as above.

S. mutans [7] = assay: MIC test (broth microdilution) / antimicrobial activity, S. mutans; format: cell-based, Streptococcus mutans
Procedure, shortened: (§3)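 Broth microdilution with ~1×10^5 cfu/mL organisms in TH broth (S. mutans) or Mueller-Hinton broth (other organisms). Peptides added as 2-fold serial dilutions, then incubated 18-24 h at 37° C. Experiments run 10 times.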

P. aeruginosa [8] = assay: MIC test (broth microdilution) / antimicrobial activity, P. aeruginosa; format: cell-based, Pseudomonas aeruginosa; details: P. aeruginosa
Description: (§4) The active AMPs, STAMPs and the like can be identified and/or validated using an in vitro screening assay.
(§5) It will be appreciated that other assays as are well known in the art or that will become apparent to those having skill in the art upon review of this disclosure may also be used to identify active AMPs. Such assays include, for example, the assay described in Lehrer et al. (1988) J. Immunol.
(§6) Peptides were evaluated for basic antimicrobial activity by broth microdilution, as described previously (Eckert et al. (2006) Antimicrob Agents Chemother., 50: 3651-3657; Eckert et al. (2006) Antimicrob Agents Chemother., 50: 1480-1488). Briefly, ˜1×10^5 cfu/mL bacteria were diluted in TH (S. mutans), or Mueller-Hinton (MH) broth (all other organisms) and distributed to 96-well plates. Serially-diluted (2-fold) peptides were then added and the plates incubated at 37° C. for 18-24 h. […] All experiments were conducted 10 times.

A. baumannii = assay: MIC test / antimicrobial activity, A. baumannii; format: cell-based, Acinetobacter baumannii
Description: as §4, §5, §6

T. rubrum = assay: MIC test / antimicrobial activity, T. rubrum; format: cell-based, Trichophyton rubrum
Description: as §4, §5, §6

A. niger = assay: MIC test / antimicrobial activity, A. niger; format: cell-based, Aspergillus niger
Description: as §4, §5, §6

B. subtilis = assay: MIC test / antimicrobial activity, B. subtilis; format: cell-based, Bacillus subtilis; details: B. subtilis
Procedure, shortened: as §3

C. difficile = assay: MIC test / antimicrobial activity, C. difficile; format: cell-based, Clostridium difficile
Description: as §4, §5, §6

C. jeikeium = assay: MIC test / antimicrobial activity, C. jeikeium; format: cell-based, Corynebacterium jeikeium
Description: as §4, §5, §6

S. epidermidis [9] = assay: MIC test (broth microdilution) / antimicrobial activity, S. epidermidis; format: cell-based, Staphylococcus epidermidis; details: S. epidermidis
Description: as §4, §5, §6

microorganisms [10] = assay: Peptide activities: targeting/binding, antimicrobial, growth or phenotype altering (Tables 7, 8); format: cell-based; details: peptides having multiple activities
microorganisms [11] = assay: Morphology, biofilm and growth disrupting peptides (Table 5); format: cell-based; parameters: key: A: Peptide aggregates; B: Less hyphal formation; Clumps; Diffuse clumps and small polyps; F: Diffuse growth; H: Thin; I: Growth inhibition; Microcolony formation; Rippled; Small polyps; Thick; W: Halo formation on top, microlonies on bottom
Source text: In certain embodiments peptides that induce alterations in phenotype or other biological activities can also be used as antimicrobial effector moieties.

**Q.** What does the source list for `CC[C@H](C)[C@H](NC(=O)[C@@H](N)Cc1ccccc1)C(=O)N[C@@H](CCCNC(=N)N)C(=O)N[C@@H](CCCCN)C(=O)N[C@@H](Cc1ccccc1)C(=O)N[C@@H](CC(C)C)C(=O)N[C@@H](CCCCN)C(=O)N[C@@H](CCCCN)C(=O)N[C@@H](Cc1c[nH]c2ccccc12)C(=O)N[C@@H](CC(C)C)C(=O)N[C@@H](CC(C)C)C(N)=O` [BD2.20] (H-FIRKFLKKWLL-NH2; N-terminus assumed)?
**A.** growth after treatment (culture recovery, OD600) (S. mutans [1]): robust antimicrobial activity; growth after treatment (culture recovery, OD600) (P. aeruginosa [2]): robust antimicrobial activity; growth after treatment (culture recovery, OD600) (S. epidermidis [3]): inhibited; growth after treatment (culture recovery, OD600) (S. aureus): inhibited; growth after treatment (culture recovery, OD600) (E. coli): inhibited; surviving P. aeruginosa ([4]; input ~0.5×10^4 cfu/mL): significant loss of recoverable cfu/mL; surviving E. coli ([4]; input ~2×10^4 cfu/mL): significant loss of recoverable cfu/mL; surviving S. epidermidis ([4]; input ~2×10^4 cfu/mL): significant loss of recoverable cfu/mL; surviving S. mutans ([4]; input ~6×10^4 cfu/mL): significant loss of recoverable cfu/mL

**Q.** For `O=C1OC2(c3cc(I)c(O)c(I)c3Oc3c2cc(I)c(O)c3I)c2c(Cl)c(Cl)c(Cl)c(Cl)c21` [RB, rose bengal], which “decrease in cfu/mL, dark control” value (S. mutans UA140 biofilms) is on record?
**A.** appreciable decreases in cfu/mL were not observed

**Q.** What about the “selectivity of photodynamic antimicrobial activity” value ([5]; blue light illumination, FIG. 22) of the same compound?
**A.** strong indiscriminant photodynamic antimicrobial effects

**Q.** And the “ratio of surviving S. mutans:non-cariogenic streptococci cfu” value ([5]; potassium gluconate, blue light)?
**A.** ~1

**Q.** And the IC50 ([6]; 5 min w/blue light)?
**A.** 40 µM

**Q.** And the “IC50 (μM) BHK” value ([6]; 5 min w/blue light)?
**A.** light-dependent toxicity

**Q.** And the IC50 ([6]; 24 h dark)?
**A.** 90 µM

**Q.** Which “Organism MIC (μM)” value (S. mutans [7]) does the source give for YIQFHLNQQPRPKVKKIKIFL-NH2 [PF-531] here?
**A.** S. mutans, 12.5 μM

**Q.** What about the “Organism MIC (μM)” value (P. aeruginosa [8]) of the same compound?
**A.** P. aeruginosa, 50 μM

**Q.** What about the “Organism MIC (μM)” value (A. baumannii) of the same compound?
**A.** A. baumannii, 25 μM

**Q.** What about the “Organism MIC (μM)” value (T. rubrum) of the same compound?
**A.** T. rubrum, 50 μM

**Q.** And the “Organism MIC (μM)” value (A. niger)?
**A.** A. niger, 25 μM

**Q.** What about the “Organism MIC (μM)” value (B. subtilis) of the same compound?
**A.** B. subtilis, 25 μM

**Q.** And the “Organism MIC (μM)” value (C. difficile)?
**A.** C. difficile, 12.5 μM

**Q.** And the “Organism MIC (μM)” value (C. jeikeium)?
**A.** C. jeikeium, 6.25 μM

**Q.** And the “Organism MIC (μM)” value (S. epidermidis [9])?
**A.** S. epidermidis, 50 μM

**Q.** What about the Activities (microorganisms [10]) of the same compound?
**A.** G M

**Q.** What about the “Organism, effect” value (microorganisms [11]; E. coli) of the same compound?
**A.** E. coli (M)

**Q.** What about the “Organism, effect” value (microorganisms [11]; P. aeruginosa) of the same compound?
**A.** P. aeruginosa (I)

**Q.** What about the “Organism, effect” value (microorganisms [11]; S. epidermidis) of the same compound?
**A.** S. epidermidis (I)

**Q.** And the “Organism, effect” value (microorganisms [11]; S. pneumoniae)?
**A.** S. pneumoniae (C)
